Data set [1] deals with T1, Sodium channel protein type 9 subunit alpha (Homo sapiens, UniProt Q15858). The experiment in a line: Inhibition of human Nav1.7 expressed in HEK cells by patch clamp electrophysiology method. The class given is cell-based. (The patch-clamp technique gives a direct electrical read-out from membranes.)
For data set [2], the target named is T1, Sodium channel protein type 9 subunit alpha. The experiment in a line: Inhibition of human Nav1.7 expressed in HEK cells by automated patchXpress electrophysiology method. It is filed as cell-based.
Data set [3] concerns the target Sodium channel protein type 5 subunit alpha (Homo sapiens, UniProt Q14524). Description: Inhibition of human Nav1.5 expressed in HEK cells by automated patchXpress electrophysiology method. The class given is ADME, cell-based.
Data set [4] is described as follows: Solubility of the compound in aqueous buffer at pH 4.2. The class given is physicochemical.
The nature of data set [5]: Solubility of the compound in aqueous buffer at pH 3. It is filed as physicochemical.
Data set [6] in a line: Solubility of the compound in aqueous buffer at pH 5.1. It is filed as physicochemical.
Data set [7] can be described thus: Solubility of the compound in aqueous buffer at pH 7.2. It is filed as physicochemical.

Converted amounts (≈) assume the structure as drawn.

T1 sequence (Q15858 whole entry): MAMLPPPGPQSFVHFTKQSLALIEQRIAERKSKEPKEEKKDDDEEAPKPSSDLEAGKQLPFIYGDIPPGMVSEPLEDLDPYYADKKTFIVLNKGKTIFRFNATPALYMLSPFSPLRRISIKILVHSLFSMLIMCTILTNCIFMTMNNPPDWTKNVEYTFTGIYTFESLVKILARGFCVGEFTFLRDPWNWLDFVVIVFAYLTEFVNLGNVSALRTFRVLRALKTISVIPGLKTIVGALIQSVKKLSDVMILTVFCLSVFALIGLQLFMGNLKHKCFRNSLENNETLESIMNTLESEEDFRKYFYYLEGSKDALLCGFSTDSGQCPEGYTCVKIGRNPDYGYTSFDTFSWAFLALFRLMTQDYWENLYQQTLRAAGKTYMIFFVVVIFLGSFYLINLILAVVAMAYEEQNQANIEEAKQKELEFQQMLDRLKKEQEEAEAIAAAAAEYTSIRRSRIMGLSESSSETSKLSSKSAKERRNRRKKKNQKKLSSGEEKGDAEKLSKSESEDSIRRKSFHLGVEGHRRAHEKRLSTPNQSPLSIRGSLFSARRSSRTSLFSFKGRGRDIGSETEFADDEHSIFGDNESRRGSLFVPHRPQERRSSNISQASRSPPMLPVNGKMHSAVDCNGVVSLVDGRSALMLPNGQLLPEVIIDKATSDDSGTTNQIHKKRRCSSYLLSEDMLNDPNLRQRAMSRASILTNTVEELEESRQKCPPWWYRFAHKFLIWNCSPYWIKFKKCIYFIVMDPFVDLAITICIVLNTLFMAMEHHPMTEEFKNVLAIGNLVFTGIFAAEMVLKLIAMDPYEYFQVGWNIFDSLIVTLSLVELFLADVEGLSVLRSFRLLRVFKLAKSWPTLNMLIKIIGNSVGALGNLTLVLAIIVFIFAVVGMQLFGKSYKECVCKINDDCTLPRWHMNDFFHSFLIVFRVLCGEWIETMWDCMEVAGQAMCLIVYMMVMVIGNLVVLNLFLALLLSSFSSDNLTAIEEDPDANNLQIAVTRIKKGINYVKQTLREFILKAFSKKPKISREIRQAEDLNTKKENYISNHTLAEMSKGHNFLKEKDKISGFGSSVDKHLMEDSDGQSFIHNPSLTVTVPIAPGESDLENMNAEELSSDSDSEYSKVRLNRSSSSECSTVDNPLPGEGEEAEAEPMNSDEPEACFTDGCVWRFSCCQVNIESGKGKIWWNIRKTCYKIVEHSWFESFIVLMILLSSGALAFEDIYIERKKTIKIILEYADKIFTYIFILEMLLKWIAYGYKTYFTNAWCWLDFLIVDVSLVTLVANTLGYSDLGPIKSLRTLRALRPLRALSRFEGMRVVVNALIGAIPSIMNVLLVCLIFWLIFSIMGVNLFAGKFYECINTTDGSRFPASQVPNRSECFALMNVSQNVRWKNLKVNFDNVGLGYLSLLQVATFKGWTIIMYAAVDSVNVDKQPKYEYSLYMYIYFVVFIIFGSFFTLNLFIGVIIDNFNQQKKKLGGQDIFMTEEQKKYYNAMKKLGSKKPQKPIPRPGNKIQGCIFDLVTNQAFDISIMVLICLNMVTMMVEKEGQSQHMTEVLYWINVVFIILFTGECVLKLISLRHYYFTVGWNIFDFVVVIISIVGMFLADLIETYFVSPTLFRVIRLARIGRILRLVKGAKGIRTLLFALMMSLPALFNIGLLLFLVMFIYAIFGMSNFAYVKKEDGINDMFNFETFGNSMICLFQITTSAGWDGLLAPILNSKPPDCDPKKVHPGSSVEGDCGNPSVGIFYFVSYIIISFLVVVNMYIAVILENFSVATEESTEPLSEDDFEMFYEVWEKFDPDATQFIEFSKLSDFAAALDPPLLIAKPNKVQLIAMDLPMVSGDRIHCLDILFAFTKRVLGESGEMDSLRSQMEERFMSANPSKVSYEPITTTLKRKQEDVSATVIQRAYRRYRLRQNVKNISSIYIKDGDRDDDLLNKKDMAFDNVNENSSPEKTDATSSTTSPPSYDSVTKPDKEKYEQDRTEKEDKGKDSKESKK
Sequence of Sodium channel protein type 5 subunit alpha (Q14524 whole entry): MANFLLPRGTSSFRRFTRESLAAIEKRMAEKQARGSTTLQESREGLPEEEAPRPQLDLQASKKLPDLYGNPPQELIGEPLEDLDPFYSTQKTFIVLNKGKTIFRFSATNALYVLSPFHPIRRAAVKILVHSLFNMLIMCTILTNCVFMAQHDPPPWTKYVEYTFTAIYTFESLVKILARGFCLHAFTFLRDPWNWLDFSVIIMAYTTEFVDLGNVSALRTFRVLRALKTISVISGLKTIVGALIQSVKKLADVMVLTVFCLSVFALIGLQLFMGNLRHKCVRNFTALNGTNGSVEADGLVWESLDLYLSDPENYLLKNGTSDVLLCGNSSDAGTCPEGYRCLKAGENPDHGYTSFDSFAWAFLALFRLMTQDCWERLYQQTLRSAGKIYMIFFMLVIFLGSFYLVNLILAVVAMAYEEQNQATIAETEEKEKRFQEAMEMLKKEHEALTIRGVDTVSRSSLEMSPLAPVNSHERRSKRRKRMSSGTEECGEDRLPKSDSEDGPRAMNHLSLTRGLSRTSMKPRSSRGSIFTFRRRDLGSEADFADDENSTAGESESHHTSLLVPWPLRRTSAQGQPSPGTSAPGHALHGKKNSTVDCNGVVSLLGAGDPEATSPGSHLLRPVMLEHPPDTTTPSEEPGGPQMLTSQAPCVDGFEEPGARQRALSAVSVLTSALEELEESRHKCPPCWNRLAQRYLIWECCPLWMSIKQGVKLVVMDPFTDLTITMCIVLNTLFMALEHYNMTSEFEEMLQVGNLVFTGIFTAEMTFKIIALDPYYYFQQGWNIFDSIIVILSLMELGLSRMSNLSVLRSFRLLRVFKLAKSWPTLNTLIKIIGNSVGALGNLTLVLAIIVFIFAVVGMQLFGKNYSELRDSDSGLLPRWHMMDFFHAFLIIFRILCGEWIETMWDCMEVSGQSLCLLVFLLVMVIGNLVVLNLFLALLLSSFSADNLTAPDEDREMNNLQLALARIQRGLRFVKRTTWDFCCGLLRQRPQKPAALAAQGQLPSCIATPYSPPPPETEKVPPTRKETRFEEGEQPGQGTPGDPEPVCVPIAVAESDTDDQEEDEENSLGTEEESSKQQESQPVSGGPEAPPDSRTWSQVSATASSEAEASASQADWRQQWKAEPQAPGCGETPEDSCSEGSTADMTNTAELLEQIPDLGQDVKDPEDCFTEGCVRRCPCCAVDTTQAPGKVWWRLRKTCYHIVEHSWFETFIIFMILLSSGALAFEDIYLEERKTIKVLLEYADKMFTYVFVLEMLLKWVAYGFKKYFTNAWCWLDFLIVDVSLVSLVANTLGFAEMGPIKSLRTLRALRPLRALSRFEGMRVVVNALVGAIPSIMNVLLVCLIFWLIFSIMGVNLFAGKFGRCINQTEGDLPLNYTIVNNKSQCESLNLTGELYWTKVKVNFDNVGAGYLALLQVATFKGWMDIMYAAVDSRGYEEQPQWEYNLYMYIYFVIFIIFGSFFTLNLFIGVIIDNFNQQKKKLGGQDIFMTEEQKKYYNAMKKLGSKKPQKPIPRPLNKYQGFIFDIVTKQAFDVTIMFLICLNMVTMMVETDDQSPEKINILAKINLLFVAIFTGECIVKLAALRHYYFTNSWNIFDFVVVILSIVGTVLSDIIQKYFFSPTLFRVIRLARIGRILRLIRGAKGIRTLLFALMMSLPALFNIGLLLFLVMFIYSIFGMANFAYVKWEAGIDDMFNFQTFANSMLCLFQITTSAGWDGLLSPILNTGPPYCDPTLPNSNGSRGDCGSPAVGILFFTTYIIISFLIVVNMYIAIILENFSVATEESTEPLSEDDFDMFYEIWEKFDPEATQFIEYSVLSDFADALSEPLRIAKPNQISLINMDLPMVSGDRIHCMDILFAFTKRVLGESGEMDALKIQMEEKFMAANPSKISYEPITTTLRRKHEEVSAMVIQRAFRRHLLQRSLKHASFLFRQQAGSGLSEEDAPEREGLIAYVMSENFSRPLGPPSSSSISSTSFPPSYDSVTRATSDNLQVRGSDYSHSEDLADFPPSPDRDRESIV

For orientation: IC50 means the concentration at which inhibition is half-maximal. Regarding `C#CCCOc1ccc(C(=O)c2ccc(CCC(=O)N3CCC(CCNCc4cc(-c5cc(-c6cccc(C(F)(F)F)c6)ccc5Oc5ccc(S(=O)(=O)Nc6ncns6)cc5C#N)ccn4)CC3)cc2)cc1`, the IC50 in data set [1] is 0.1 nM.

As to `N#Cc1cc(S(=O)(=O)Nc2ncns2)ccc1Oc1ccc(-c2cccc(C(F)(F)F)c2)cc1-c1ccnc(CN)c1`, half-maximal inhibition in data set [1] (IC50) was put at 0.1 nM. As for `O=S(=O)(Nc1nncs1)c1cc(Cl)c(Oc2ccc(Cl)cc2-c2ccnc(CN3CCC3)c2)cc1F`, in data set [2], the IC50 was 4.8 nM. The same measure, in the same setting: in the case of `CC(=O)N1CCC(CCNCc2cc(-c3cc(-c4cccc(C(F)(F)F)c4)ccc3Oc3ccc(S(=O)(=O)Nc4ncns4)cc3C#N)ccn2)CC1` it was less than 4 nM. On the same count and under the same terms, in the case of `N#Cc1cc(S(=O)(=O)Nc2ncns2)ccc1Oc1ccc(Cl)cc1-c1cccc(CN)c1` it was 8.5 nM; in that of `O=S(=O)(Nc1cscn1)c1cc(Cl)c(Oc2ccc(Cl)cc2-c2ccnc(CN3CCC3)c2)cc1F`, 13.2 nM.

Take `COCCOCCOCCOCCOCCOCCOCCOCCOCCOCCOCCOCCC(=O)N1CCC(CCNCc2cc(-c3cc(-c4cccc(C(F)(F)F)c4)ccc3Oc3ccc(S(=O)(=O)Nc4ncns4)cc3C#N)ccn2)CC1`: the IC50 in data set [3] was greater than 3000 nM; in data set [2] it was less than 10 nM.

As for `Cc1cc(C)n2c1C=C1C=CC(CCCCC(=O)NCCOCCOCCC(=O)N3CCC(CCNCc4cc(-c5cc(-c6cccc(C(F)(F)F)c6)ccc5Oc5ccc(S(=O)(=O)Nc6ncns6)cc5C#N)ccn4)CC3)=[N+]1[B-]2(F)F`, the IC50 in data set [1] was 0.12 nM. This lies in the sub-nanomolar range. By solubility is commonly meant how much of the substance goes into solution per volume. With `NCc1cc(-c2cc(-c3cccc(C(F)(F)F)c3)ccc2Oc2cc(F)c(S(=O)(=O)Nc3nncs3)cc2Cl)ccn1`, the solubility in data set [4] is less than 0.5 µg/mL; in data set [5], 6 µg/mL (≈ 9.43 µM); in data set [6], less than 0.5 µg/mL; in data set [7], less than 0.5 µg/mL. In the case of `N#Cc1cc(S(=O)(=O)Nc2ncns2)ccc1Oc1ccc(Cl)cc1-c1cccc(CNCCC2CCNCC2)c1`, the IC50 in data set [2] was found to be 0.7 nM.
